From the supplement of paper PMC11061612

Key:
Assay in all cases: combination Emax (second highest fraction inhibited in the dose matrix, 72 h); higher = more inhibition; extreme values may be limits of the assay
[1] = system: CAL-148 (Breast Carcinoma)
Method in brief: (§1)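 Cell lines in DMEM/F12 or RPMI with 10% FBS were plated in 1536-well plates, held 24 hours at 37°C, 5% CO2, then given two-drug dose matrices for 72 hours (DMSO typically 0.2%). Viability was read by CellTiter-Glo 2.0 luminescence and scaled as inhibition from 0 (vehicle wells) to 1 (blank wells). Combination Emax is the second-highest inhibition in the matrix; Bliss excess is observed combination effect minus expected EA + EB − EA·EB, EA and EB being single-agent effects.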

[2] = system: CaR-1 (Colorectal Carcinoma)
Method in brief: as §1

[3] = system: DoTc2-4510 (Cervical Carcinoma)
Method in brief: as §1

[4] = system: HCC1806 (Breast Carcinoma)
Method in brief: as §1

KELLY (Neuroblastoma) = system: KELLY (Neuroblastoma)
Method in brief: as §1

[5] = system: KYSE-520 (Esophageal Squamous Cell Carcinoma)
Method in brief: as §1

[6] = system: LB831-BLC (Bladder Carcinoma)
Method in brief: as §1

[7] = system: LNCaP-Clone-FGC (Prostate Carcinoma)
Method in brief: as §1

[8] = system: NCI-H82 (Small Cell Lung Carcinoma)
Method in brief: as §1

[9] = system: OVCA420 (Ovarian Carcinoma)
Method in brief: as §1

[10] = system: RC-K8 (B-Cell Non-Hodgkin's Lymphoma)
Method in brief: as §1

[11] = system: TE-9 (Esophageal Squamous Cell Carcinoma)
Method in brief: as §1

SMILES | combination Emax [1] | combination Emax [2] | combination Emax [3] | combination Emax [4] | combination Emax (KELLY (Neuroblastoma)) | combination Emax [5] | combination Emax [6] | combination Emax [7] | combination Emax [8] | combination Emax [9] | combination Emax [10] | combination Emax [11]
COc1nnc2ccc(N3CCC(c4ccc(OCCN5CCN(C)C(=O)[C@H]5C)cc4)CC3)nn12 [AZD5153] + CC1(C)CCC(CN2CCN(c3ccc(C(=O)NS(=O)(=O)c4ccc(NCC5CCOCC5)c([N+](=O)[O-])c4)c(Oc4cnc5[nH]ccc5c4)c3)CC2)=C(c2ccc(Cl)cc2)C1 [Venetoclax] (first compound max 1 µM, 7x7, partner max 1 µM) | 0.557 | 0.384 | 0.385 | 0.645 | 0.367 | 0.615 | 0.499 | 0.743 | 0.467 | 0.792 | 0.738 | 0.13
COc1nnc2ccc(N3CCC(c4ccc(OCCN5CCN(C)C(=O)[C@H]5C)cc4)CC3)nn12 [AZD5153] + CCN(CCO)CCCOc1ccc2c(Nc3cc(CC(=O)Nc4cccc(F)c4)[nH]n3)ncnc2c1 [AZD2811] (first compound max 1 µM, 7x7, partner max 1 µM) | 0.927 | 0.367 | 0.381 | 0.676 | 0.724 | 0.605 | 0.546 | 0.743 | 0.481 | 0.773 | 0.728 | 0.218
COc1nnc2ccc(N3CCC(c4ccc(OCCN5CCN(C)C(=O)[C@H]5C)cc4)CC3)nn12 [AZD5153] + C[C@@H]1COCCN1C2=NC(=NC(=C2)C3(CC3)[S@](=N)(=O)C)C4=C5C=CNC5=NC=C4 [AZD6738] (first compound max 1 µM, 7x7, partner max 10 µM) | 0.912 | 0.518 | 0.511 | 0.919 | 0.983 | 0.681 | 0.648 | 0.791 | 0.878 | 0.807 | 0.896 | 0.271
COc1nnc2ccc(N3CCC(c4ccc(OCCN5CCN(C)C(=O)[C@H]5C)cc4)CC3)nn12 [AZD5153] + Cc1c2c(nn1C)CSCc1cc(n(C)n1)CSc1cc(c3ccccc3c1)OCCCc1c(C(=O)O)n(C)c3c-2c(Cl)ccc13 [AZD5991] (first compound max 1 µM, 7x7, partner max 1 µM) | 1 | 0.434 | 0.362 | 0.755 | 0.993 | 0.585 | 0.587 | 0.772 | 0.968 | 0.771 | 0.832 | 0.57
COc1nnc2ccc(N3CCC(c4ccc(OCCN5CCN(C)C(=O)[C@H]5C)cc4)CC3)nn12 [AZD5153] + Cn1cnc2c(F)c(Nc3ccc(Br)cc3Cl)c(C(=O)NOCCO)cc21 [Selumetinib] (first compound max 1 µM, 7x7, partner max 10 µM) | 0.79 | 0.619 | 0.427 | 0.687 | 0.645 | 0.691 | 0.494 | 0.728 | 0.378 | 0.819 | 0.781 | 0.35
Cc1c2c(nn1C)CSCc1cc(n(C)n1)CSc1cc(c3ccccc3c1)OCCCc1c(C(=O)O)n(C)c3c-2c(Cl)ccc13 [AZD5991] + CC1(C)CCC(CN2CCN(c3ccc(C(=O)NS(=O)(=O)c4ccc(NCC5CCOCC5)c([N+](=O)[O-])c4)c(Oc4cnc5[nH]ccc5c4)c3)CC2)=C(c2ccc(Cl)cc2)C1 [Venetoclax] (first compound max 1 µM, 7x7, partner max 1 µM) | 0.411 | 0.144 | 0.287 | 0.596 | 0.999 | 0.183 | 0.439 | 0.228 | 0.914 | 0.187 | 0.185 | 0.508
Cc1c2c(nn1C)CSCc1cc(n(C)n1)CSc1cc(c3ccccc3c1)OCCCc1c(C(=O)O)n(C)c3c-2c(Cl)ccc13 [AZD5991] + CCN(CCO)CCCOc1ccc2c(Nc3cc(CC(=O)Nc4cccc(F)c4)[nH]n3)ncnc2c1 [AZD2811] (first compound max 1 µM, 7x7, partner max 1 µM) | 1 | 0.338 | 0.287 | 0.776 | 0.896 | 0.283 | 0.444 | 0.33 | 0.972 | 0.235 | 0.379 | 0.251
Cc1c2c(nn1C)CSCc1cc(n(C)n1)CSc1cc(c3ccccc3c1)OCCCc1c(C(=O)O)n(C)c3c-2c(Cl)ccc13 [AZD5991] + CN(C)CCCOc1ccc(-c2ccc3ncc4c(c3c2)n(C2CCOCC2)c(=O)n4C)cn1 [AZD0156] (first compound max 1 µM, 7x7, partner max 1 µM) | 0.417 | 0.186 | 0.326 | 0.833 | 0.741 | 0.23 | 0.229 | 0.429 | 0.941 | 0.191 | 0.314 | 0.188
Cc1c2c(nn1C)CSCc1cc(n(C)n1)CSc1cc(c3ccccc3c1)OCCCc1c(C(=O)O)n(C)c3c-2c(Cl)ccc13 [AZD5991] + C[C@@H]1COCCN1C2=NC(=NC(=C2)C3(CC3)[S@](=N)(=O)C)C4=C5C=CNC5=NC=C4 [AZD6738] (first compound max 1 µM, 7x7, partner max 10 µM) | 0.942 | 0.362 | 0.677 | 0.961 | 0.991 | 0.583 | 0.439 | 0.688 | 0.99 | 0.494 | 0.781 | 0.366
Cc1c2c(nn1C)CSCc1cc(n(C)n1)CSc1cc(c3ccccc3c1)OCCCc1c(C(=O)O)n(C)c3c-2c(Cl)ccc13 [AZD5991] + C[C@@H](Nc1cc(F)cc(F)c1)c1cc(C(=O)N(C)C)cc2c(=O)cc(N3CCOCC3)oc12 [AZD8186] (first compound max 1 µM, 7x7, partner max 3 µM) | 0.335 | 0.174 | 0.384 | 0.6 | 0.726 | 0.412 | 0.366 | 0.894 | 0.905 | 0.282 | 0.2 | 0.135
Cc1c2c(nn1C)CSCc1cc(n(C)n1)CSc1cc(c3ccccc3c1)OCCCc1c(C(=O)O)n(C)c3c-2c(Cl)ccc13 [AZD5991] + Cc1cc2ncnn2cc1Nc1ncc2c(n1)n(C1CCOCC1)c(=O)n2C [AZD7648] (first compound max 1 µM, 7x7, partner max 10 µM) | 0.45 | 0.277 | 0.244 | 0.515 | 0.768 | 0.365 | 0.251 | 0.42 | 0.927 | 0.201 | 0.425 | 0.214
Cc1c2c(nn1C)CSCc1cc(n(C)n1)CSc1cc(c3ccccc3c1)OCCCc1c(C(=O)O)n(C)c3c-2c(Cl)ccc13 [AZD5991] + Cn1cnc2c(F)c(Nc3ccc(Br)cc3Cl)c(C(=O)NOCCO)cc21 [Selumetinib] (first compound max 1 µM, 7x7, partner max 3 µM) | 0.329 | 0.168 | 0.432 | 0.667 | 0.737 | 0.355 | 0.392 | 0.129 | 0.922 | 0.498 | 0.239 | 0.162
NC1(C(=O)N[C@@H](CCO)c2ccc(Cl)cc2)CCN(c2ncnc3[nH]ccc23)CC1 [Capivasertib] + CC(=O)c1c(C)c2cnc(Nc3ccc(N4CCNCC4)cn3)nc2n(C2CCCC2)c1=O [Palbociclib] (first compound max 10 µM, 7x7, partner max 10 µM) | 0.964 | 0.436 | 0.181 | 0.516 | 0.522 | 0.638 | 0.453 | 0.945 | 0.836 | 0.412 | 0.435 | 0.227
NC1(C(=O)N[C@@H](CCO)c2ccc(Cl)cc2)CCN(c2ncnc3[nH]ccc23)CC1 [Capivasertib] + CC(C)n1c(=O)n(C)c2cnc3cc(F)c(-c4ccc(OCCCN5CCCCC5)nc4)cc3c21 [AZD1390] (first compound max 10 µM, 7x7, partner max 0.3 µM) | 0.971 | 0.365 | 0.234 | 0.267 | 0.256 | 0.467 | 0.493 | 0.956 | 0.912 | 0.21 | 0.224 | 0.17
NC1(C(=O)N[C@@H](CCO)c2ccc(Cl)cc2)CCN(c2ncnc3[nH]ccc23)CC1 [Capivasertib] + CCN(CCO)CCCOc1ccc2c(Nc3cc(CC(=O)Nc4cccc(F)c4)[nH]n3)ncnc2c1 [AZD2811] (first compound max 10 µM, 7x7, partner max 1 µM) | 1 | 0.501 | 0.279 | 0.378 | 0.68 | 0.542 | 0.482 | 0.994 | 0.925 | 0.253 | 0.53 | 0.267
